Data set [1] can be described thus: Rat intrinsic and hepatic clearance. It is filed as in vitro ADME.
The next data set deals with 2C9 (Homo sapiens (Human), UniProt P11712). The data set can be described thus: CYP 2C9 inhibition. It is filed as in vitro ADME.
In the next data set the target is 1A2 (Homo sapiens (Human), UniProt P05177). Briefly: CYP 1A2 inhibition. The format is in vitro ADME.
Another data set can be described thus: Brain-plasma partition. To be noted: rat; for unbound brain-to-plasma partition coefficient (Kp,uu): unbound brain-plasma ratio, read-out: Brain-Plasma Kp,ω. It is filed as in vivo.
Data set [2] can be described thus: Rat plasma fraction unbound. It is filed as in vitro ADME. The following applies: read-out: Rat Fu Plasma.
Data set [3] is described as follows: Human intrinsic and hepatic clearance. The format is in vitro ADME.
The next data set addresses 3A4 (Homo sapiens (Human), UniProt P08684). Briefly: CYP 3A4 inhibition. It is filed as in vitro ADME.
A further data set in a line: Kinetic solubility. It is filed as physicochemical. The following applies: kinetic from dmso stock.
Data set [4] can be described thus: Human plasma fraction unbound. The format is in vitro ADME. The following applies: read-out: Human Fu Plasma.
The target of a further data set is 2D6 (Homo sapiens (Human), UniProt P10635). The data set can be described thus: CYP 2D6 inhibition. The format is in vitro ADME.
Data set [5] in a line: Rat brain fraction unbound. The following applies: read-out: Rat Fu Brain. It is filed as in vitro ADME.
The nature of another data set: Rat in vivo clearance. To be noted: read-out: Rat in Vivo CL.

Converted amounts (≈) assume the structure as drawn.

Sequence of 3A4 (P08684 whole entry): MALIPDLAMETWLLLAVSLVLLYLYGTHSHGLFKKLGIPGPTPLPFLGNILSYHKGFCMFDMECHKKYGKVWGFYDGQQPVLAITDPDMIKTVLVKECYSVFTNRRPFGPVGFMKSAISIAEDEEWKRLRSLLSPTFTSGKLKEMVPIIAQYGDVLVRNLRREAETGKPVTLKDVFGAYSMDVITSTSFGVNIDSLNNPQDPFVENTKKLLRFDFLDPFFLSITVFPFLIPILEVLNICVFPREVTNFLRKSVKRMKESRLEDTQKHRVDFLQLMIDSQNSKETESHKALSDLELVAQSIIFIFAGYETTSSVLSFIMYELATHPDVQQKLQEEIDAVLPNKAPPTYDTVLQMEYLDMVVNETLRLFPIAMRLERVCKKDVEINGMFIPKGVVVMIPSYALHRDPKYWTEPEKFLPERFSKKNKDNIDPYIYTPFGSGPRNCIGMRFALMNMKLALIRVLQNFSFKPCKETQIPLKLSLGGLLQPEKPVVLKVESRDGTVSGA
Sequence of 2D6 (P10635 whole entry): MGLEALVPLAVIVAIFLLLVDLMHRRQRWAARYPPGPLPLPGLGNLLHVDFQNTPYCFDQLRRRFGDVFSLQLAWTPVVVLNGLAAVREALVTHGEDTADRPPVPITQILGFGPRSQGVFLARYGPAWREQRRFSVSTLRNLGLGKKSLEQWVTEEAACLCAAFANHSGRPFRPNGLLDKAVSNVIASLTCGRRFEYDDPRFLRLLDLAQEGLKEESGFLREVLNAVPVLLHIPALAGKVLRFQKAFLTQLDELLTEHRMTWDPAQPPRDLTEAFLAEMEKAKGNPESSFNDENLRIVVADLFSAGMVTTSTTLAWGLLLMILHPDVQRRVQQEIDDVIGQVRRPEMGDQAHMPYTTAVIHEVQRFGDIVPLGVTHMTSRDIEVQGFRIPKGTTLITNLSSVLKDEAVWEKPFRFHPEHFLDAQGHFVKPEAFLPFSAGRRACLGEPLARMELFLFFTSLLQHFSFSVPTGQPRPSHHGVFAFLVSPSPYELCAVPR
Sequence of 1A2 (P05177 whole entry): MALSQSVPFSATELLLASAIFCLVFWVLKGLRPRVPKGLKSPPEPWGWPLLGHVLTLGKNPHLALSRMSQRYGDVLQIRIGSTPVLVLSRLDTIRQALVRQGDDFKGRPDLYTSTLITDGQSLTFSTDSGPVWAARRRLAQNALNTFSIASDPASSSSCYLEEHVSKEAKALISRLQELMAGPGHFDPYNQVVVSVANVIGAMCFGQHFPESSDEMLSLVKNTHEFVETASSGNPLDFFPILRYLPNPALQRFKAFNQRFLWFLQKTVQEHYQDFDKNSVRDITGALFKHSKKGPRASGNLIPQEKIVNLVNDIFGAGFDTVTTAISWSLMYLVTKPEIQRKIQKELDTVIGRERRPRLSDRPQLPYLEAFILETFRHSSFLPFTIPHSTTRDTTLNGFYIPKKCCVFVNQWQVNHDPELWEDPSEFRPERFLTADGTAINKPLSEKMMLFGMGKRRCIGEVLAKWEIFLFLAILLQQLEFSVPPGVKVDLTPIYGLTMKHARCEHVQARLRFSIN
Sequence of 2C9 (P11712 whole entry): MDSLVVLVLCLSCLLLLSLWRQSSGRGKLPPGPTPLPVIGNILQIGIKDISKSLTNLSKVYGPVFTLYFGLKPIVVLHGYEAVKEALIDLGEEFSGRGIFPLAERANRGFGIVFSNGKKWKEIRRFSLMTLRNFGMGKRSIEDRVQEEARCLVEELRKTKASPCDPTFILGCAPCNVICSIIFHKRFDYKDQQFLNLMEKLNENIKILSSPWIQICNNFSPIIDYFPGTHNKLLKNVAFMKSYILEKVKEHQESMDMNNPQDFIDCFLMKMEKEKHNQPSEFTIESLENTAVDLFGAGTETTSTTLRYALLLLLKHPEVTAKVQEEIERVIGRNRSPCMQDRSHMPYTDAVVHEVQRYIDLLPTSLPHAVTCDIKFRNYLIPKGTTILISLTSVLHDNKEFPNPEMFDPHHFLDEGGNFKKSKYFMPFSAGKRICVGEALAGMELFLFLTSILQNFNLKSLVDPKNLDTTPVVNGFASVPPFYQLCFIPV

As to `c1cc2cc(Nc3n[nH]c4nccnc34)ccc2c(OCC2COCCO2)n1` (stereo not drawn) [Compound 86], the values for the CLint scaled in data set [1] and in data set [3] were 58.1 mL/min/kg and 19 mL/min/kg, respectively. For the same compound, the “Rat CLhep” value in data set [1] came to 31.7 mL/min/kg. The IC50 against 2C9, against 1A2, against 3A4 and at 2D6 was greater than 30 µM throughout. For the same compound, the Kp – broadly, the ratio of the level in a tissue or fluid to that in plasma or blood – in the data set “Brain-plasma partition” came to 0.35. Further, the unbound brain-to-plasma partition coefficient (Kp,uu) in “Brain-plasma partition” was 0.11. Besides, the fraction unbound amounted to 0.057 in data set [2], 0.063 in [4] and 0.018 in data set [5]. Moreover, in [3], the “Human CLhep” value is listed as 10.0 mL/min/kg. Also, the solubility (kinetic) (as a rule, solubility judged after dilution from a stock solution rather than from solid) in “Kinetic solubility” is 0.6 ± 0.2 µM (≈ 0.227 µg/mL).
With `COCCOc1nccc2cc(Nc3n[nH]c4ncccc34)ccc12` [Compound 74], the intrinsic metabolic clearance (CLint scaled) (commonly the rate of metabolic loss divided by the concentration) worked out at 252 mL/min/kg in data set [1] and 32.3 mL/min/kg in data set [3]. Further, the “Rat CLhep” value in [1] is 54.8 mL/min/kg. For the same compound, the half-maximal inhibitory concentration (IC50) on 2C9, on 1A2, against 3A4 and against 2D6 was greater than 30 µM in each case. Also, in the data set “Brain-plasma partition”, the Kp worked out at 0.59. Besides, the unbound brain-to-plasma partition coefficient (Kp,uu) in the data set “Brain-plasma partition” was found to be 0.1. Besides, the figures for the fraction unbound in data set [2], in data set [4] and in data set [5] were 0.041, 0.038 and 0.007, respectively. The “Human CLhep” value in [3] came to 12.7 mL/min/kg. In the data set “Kinetic solubility”, this compound returned a solubility (kinetic) of 0.8 ± 0.3 µM (≈ 0.268 µg/mL).
As to `c1cnc2[nH]nc(Nc3ccc4c(OCC5COCCO5)nccc4c3)c2c1` (stereo not drawn) [Compound 80], the CLint scaled was determined as 376 mL/min/kg in [1] and 22.4 mL/min/kg in [3]. Also, the “Rat CLhep” value in data set [1] is 59.0 mL/min/kg. In addition, the IC50 (commonly the midpoint of a concentration-inhibition curve) is 26.9 µM on 2C9, greater than 30 µM at 1A2, greater than 30 µM at 3A4 and greater than 30 µM against 2D6. For the same compound, in “Brain-plasma partition”, the Kp was 0.46. In addition, the unbound brain-to-plasma partition coefficient (Kp,uu) in “Brain-plasma partition” was 0.09. Further, the fraction unbound is 0.037 in data set [2], 0.033 in data set [4] and 0.007 in data set [5]. The “Human CLhep” value in [3] is 10.8 mL/min/kg. The solubility (kinetic) in “Kinetic solubility” was 1.4 ± 0.1 µM (≈ 0.528 µg/mL).
As for `C[C@H]1C[C@H](Oc2nccc3cc(Nc4n[nH]c5cccnc45)ccc23)CO1` [Compound 87], the CLint scaled in [1] was 61 mL/min/kg; in [3] it was 16 mL/min/kg. In addition, in data set [1], the “Rat CLhep” value was determined as 32.6 mL/min/kg. Also, the IC50 at 2C9 is 1.85 µM; on 1A2 it was 15.8 µM; on 3A4, greater than 30 µM; against 2D6, greater than 30 µM. Besides, the “Human CLhep” value in [3] worked out at 9.07 mL/min/kg. The clearance in “Rat in vivo clearance” worked out at 39.1 mL/min/kg. For the same compound, the kinetic solubility in “Kinetic solubility” came to 0.7 ± 0.4 µM (≈ 0.253 µg/mL).
As to `c1cnc2c(Nc3ccc4c(OCC5CCCOC5)nccc4c3)n[nH]c2c1` (stereo not drawn) [Compound 72], the CLint scaled in data set [1] was determined as 273 mL/min/kg; in [3] it was 55.7 mL/min/kg. In addition, in data set [1], the “Rat CLhep” value turned out to be 55.7 mL/min/kg. The half-maximal inhibitory concentration (IC50) at 2C9 is 3.15 µM; against 1A2, 12.9 µM; at 3A4, 22.7 µM; at 2D6 it was 24.6 µM. In “Brain-plasma partition”, this compound came in with a Kp of 0.52. Besides, in the data set “Brain-plasma partition”, the unbound brain-to-plasma partition coefficient (Kp,uu) was 0.13. Also, the fraction unbound in data set [2] is 0.008; in data set [4] it was 0.009; in data set [5] it was 0.002. The “Human CLhep” value in data set [3] turned out to be 15.2 mL/min/kg.
`c1cnc2c(Nc3ccc4c(OC5CCOCC5)nccc4c3)n[nH]c2c1` [Compound 60]: the CLint scaled in data set [1] turned out to be 94.1 mL/min/kg; in data set [3], 16.1 mL/min/kg. In addition, in [1], the “Rat CLhep” value worked out at 40.1 mL/min/kg. Moreover, the IC50 on 2C9 was 3.9 µM; at 1A2 it was 5.68 µM; on 3A4, 12.3 µM; on 2D6, 23.5 µM. In the data set “Brain-plasma partition”, this compound had a Kp of 1.44. For the same compound, the unbound brain-to-plasma partition coefficient (Kp,uu) in “Brain-plasma partition” amounted to 0.39. In addition, the fraction unbound came to 0.03 in data set [2], 0.02 in data set [4] and 0.008 in data set [5]. Moreover, the “Human CLhep” value in [3] came to 8.79 mL/min/kg. Besides, in “Rat in vivo clearance”, the clearance amounted to 81.6 mL/min/kg.
As for `COCCOc1nccc2cc(Nc3n[nH]c4nccnc34)ccc12` [Compound 81], the CLint scaled in data set [1] came out at 74.4 mL/min/kg; in data set [3] it was 38.5 mL/min/kg. Also, in [1], the “Rat CLhep” value stood at 36.1 mL/min/kg. Besides, the IC50 was greater than 30 µM against 2C9, 0.79 µM against 1A2, greater than 30 µM on 3A4 and greater than 30 µM on 2D6. Further, the Kp in “Brain-plasma partition” came to 0.4. Also, the unbound brain-to-plasma partition coefficient (Kp,uu) in the data set “Brain-plasma partition” was found to be 0.13. Besides, the fraction unbound was 0.048 in [2], 0.032 in data set [4] and 0.015 in data set [5]. The “Human CLhep” value in [3] is given as 13.6 mL/min/kg. For the same compound, the kinetic solubility in the data set “Kinetic solubility” was 0.9 ± 0.2 µM (≈ 0.303 µg/mL).
Consider `c1cnc2c(Nc3ccc4c(O[C@H]5CCCOC5)nccc4c3)n[nH]c2c1` [Compound 61], for which the intrinsic clearance (CLint scaled) in data set [1] was determined as 333 mL/min/kg; in data set [3] it was 44 mL/min/kg. Also, in data set [1], the “Rat CLhep” value is reported as 57.8 mL/min/kg. For the same compound, the half-maximal inhibitory concentration (IC50) against 2C9 was 6.04 µM; on 1A2 it was 5.86 µM; on 3A4, 4.29 µM; at 2D6 it was 19.7 µM. Besides, the Kp in “Brain-plasma partition” came to 1.83. The unbound brain-to-plasma partition coefficient (Kp,uu) in the data set “Brain-plasma partition” came to 0.23. Also, the figures for the fraction unbound in data set [2], in data set [4] and in [5] were 0.04, 0.028 and 0.005, respectively. In data set [3], the “Human CLhep” value is on record as 14.2 mL/min/kg. Also, the clearance in “Rat in vivo clearance” stood at 61 mL/min/kg.
Regarding `c1cc2cc(Nc3n[nH]c4nccnc34)ccc2c(O[C@@H]2CCOC2)n1` [Compound 58], the CLint scaled in data set [1] came out at 122 mL/min/kg; in data set [3], 32.4 mL/min/kg. The “Rat CLhep” value in [1] is on record as 44.4 mL/min/kg. For the same compound, the IC50 at 2C9, against 1A2, on 3A4 and against 2D6 was greater than 30 µM each time. This compound showed a Kp in “Brain-plasma partition” of 1.29. The unbound brain-to-plasma partition coefficient (Kp,uu) in “Brain-plasma partition” is 0.33. Moreover, the fraction unbound in [2] came to 0.055; in data set [4], 0.032; in data set [5] it was 0.014. Also, in data set [3], the “Human CLhep” value came to 12.7 mL/min/kg. For the same compound, the clearance in the data set “Rat in vivo clearance” came to 116 mL/min/kg.
Regarding `c1cnc2c(Nc3ccc4c(O[C@@H]5CCCOC5)nccc4c3)n[nH]c2c1` [Compound 62], the CLint scaled was 461 mL/min/kg in data set [1] and 58.3 mL/min/kg in data set [3]. In addition, in [1], the “Rat CLhep” value is given as 60.8 mL/min/kg. Also, the IC50 at 2C9 is 3.96 µM; against 1A2 it was 6.32 µM; against 3A4 it was 4.76 µM; on 2D6, 27.8 µM. The compound further had a Kp in the data set “Brain-plasma partition” of 3.38. In addition, the unbound brain-to-plasma partition coefficient (Kp,uu) in the data set “Brain-plasma partition” was determined as 0.36. The fraction unbound was determined as 0.038 in [2], 0.017 in data set [4] and 0.004 in data set [5]. Also, in data set [3], the “Human CLhep” value is recorded as 15.4 mL/min/kg. The solubility (kinetic) in the data set “Kinetic solubility” came to 10.3 ± 1.1 µM (≈ 3.72 µg/mL).
